Assay results taken from EP2753335B1, “AN ANTHRACYCLINE FOR THE TREATMENT OF SEPSIS” (Instituto de Medicina Molecular, priority 2011, dated 2013).
Where a name gives a salt, the structure may show the parent alone. Starred links: 1 amine or outer side, 2 acyl side, 3 side chain; linkers in the order of their positions; H or OH if unused. Positions of bridges follow the written chain, without caps; N, C: chain ends. Non-standard residues stand in square brackets, D forms with d. Residues, ends and D or L forms follow the SMILES beside them. Chains are numbered I, II in the order given. Actinocin(9to1) = Cc1c2oc3c(C)ccc(C(=O)[*:1])c3nc-2c(C(=O)[*:2])c(N)c1=O; NMeV = CN[C@H](C(=O)O)C(C)C; Sar = CNCC(=O)O

Assays:
TNF = experiment: In vitro chemical screen (Spectrum collection): TNF secretion by E. coli challenged THP-1 cells, DAS-ELISA; assay type: cell-based, human; settings: THP-1 cells, 10µM compound for 1 hour, then PFA-fixed E. coli (MOI 20) for 24 hours
Protocol: (§1) We identified 45 leading candidates (Figure 1A and Table I) that inhibited both cytokines.
(§2) THP-1 human monocytes (American Tissue Culture Collection-ATCC TIB-202) were plated in 96 well plates at 10^6 cell/ml and incubated with each one of ∼2320 compounds included in the Spectrum collection (Microsource Discovery Systems, Gaylordsville, CT) at 10µM for 1 hour. Cells were then challenged with 4% PFA-fixed DH5α E.coli at a Multiplicity of Infection (MOI) of 20 bacterial cells per THP-1 cell for an additional 24 hours. The cell supernatants were collected and IL-1β and TNF cytokines quantified by DAS-ELISA, using Human IL-1β/IL-1F2 DuoSet® and Human TNF DuoSet® (R&D Systems ®), respectively, according to company's protocol.
(§3) We generated a working subset of The RNAi Consortium (TRC) shRNA lentiviral vector library ^33,33 that allows for the silencing of most of the genes that are either human kinases or phosphatases. This subset was composed of 1440 individually arrayed lentiviral shRNA vectors targeting ∼700 genes, after selecting the most efficient shRNAs (two on average) based on available silencing efficiency data from the Broad Institute of MIT and Harvard. THP-1 cells were plated in 96 well plates at 10^6 cell/ml and infected with shRNA-expressing lentivirus. 48 hrs later infected cells were selected with puromycin. After the 3 days of selection, plates were duplicated. One of the plates was used to measure the cell number using Alamar Blue® cell viability assay (Invitrogeia®), according to manufacturer's instructions. In the other plate, cells were stimulated with 4% PFA-fixed DH5α E.coli at a Multiplicity of Infection (MOI) of 20 bacterial cells per THP-1 cell. Twenty-four hours after stimulation, cell supernatants were collected and IL-1β and TNF cytokines quantified by DAS-ELISA. All data values from IL-1β and TNF secretion assays were normalized by dividing the amount of IL-1β and TNF in the conditioned media 24, 12, 8, 6, 4 or 2 hrs after E. coli stimulation by the number of cells in each well and then by the average concentration per cell of the plate. Results were logarithmic natural transformed. Scores were sorted in ascending order and graphed. We calculated 1.5 SDEVs above and below the mean to identify the genes that changed IL-1β and TNF secretion when silenced. The same approach was used to identify the compounds that changed IL-1β and TNF secretion. The selected genes were submitted to two or more rounds of phenotypic validation.

IL-1β = experiment: In vitro chemical screen (Spectrum collection): IL-1β secretion by E. coli challenged THP-1 cells, DAS-ELISA; assay type: cell-based, human; settings: THP-1 cells, 10µM compound for 1 hour, then PFA-fixed E. coli (MOI 20) for 24 hours
Protocol: as §1, §2, §3

COC1=CC(=O)C(O)=C/C1=C\C=C\c1ccccc1 [Obtusaquinone]
Z score TNFa (TNF): -3,829374842 | Z score IL1b (IL-1β): -1,532189516

CS(=O)(=O)CCCCN=C=S [Erysolin]
Z score TNFa (TNF): -4,442389411 | Z score IL1b (IL-1β): -1,162701697

CC1(C)C(=O)C=C[C@@]2(C)C1=C(O)C(=O)[C@]1(C)[C@@H]2CC[C@@]2(C)[C@H](c3ccoc3)C[C@H]3O[C@]321 [Cedrelone]
Z score TNFa (TNF): -2,817231786 | Z score IL1b (IL-1β): -1,852572153

CC(C)=CCCC1(C)C=Cc2c(O)c3c(c(CC=C(C)C)c2O1)OC12C(=CC4CC1C(C)(C)OC2(C/C=C(/C)C(=O)O)C4O)C3=O (stereo not shown) [Dihydrogambogic acid]
Z score TNFa (TNF): -2,488781431 | Z score IL1b (IL-1β): -1,48996453

CCOc1ccc2nc3cc(N)ccc3c(N)c2c1 [Ethacridine lactate]
Z score TNFa (TNF): -2,218841761 | Z score IL1b (IL-1β): -1,389229184

CC1=C(O)C(=O)C=C2C1=CC=C1[C@@]2(C)CC[C@@]2(C)[C@@H]3C[C@](C)(C(=O)O)CC[C@]3(C)CC[C@]12C [Celastrol]
Z score TNFa (TNF): -2,941287145 | Z score IL1b (IL-1β): -1,499560887

O=C1C=CC(=O)c2ccccc21 [1,4-naphthoquinone]
Z score TNFa (TNF): -2,77797604 | Z score IL1b (IL-1β): -1,349015947

CC(=O)OCC(=O)[C@@]1(O)[C@@H](C)C[C@H]2[C@@H]3CCC4=CC(=O)C=C[C@]4(C)[C@@]3(F)[C@@H](O)C[C@@]21C [Betamethasone acetate]
Z score TNFa (TNF): -2,560814606 | Z score IL1b (IL-1β): -0,950513609

CN(C)c1ccc(C(=C2C=CC(=[N+](C)C)C=C2)c2ccc(N(C)C)cc2)cc1 [Gentian violet]
Z score TNFa (TNF): -2,696385799 | Z score IL1b (IL-1β): -1,835724332

C=C1C(=O)O[C@@H]2[C@H]3O[C@]3(C)CC/C=C(\C)CC[C@@H]12 [parthenolide]
Z score TNFa (TNF): -2,842267433 | Z score IL1b (IL-1β): -0,921962794

CC1(C)C(=O)C=C[C@]2(C)[C@H]3CC[C@@]4(C)[C@H](c5ccoc5)OC(=O)[C@H]5O[C@]54[C@]3(C)C=C[C@@H]12 [7-desacetoxy-6,7-dehydrogedunin]
Z score TNFa (TNF): -2,517707805 | Z score IL1b (IL-1β): -1,789647817

C[C@H](NCCc1ccc(O)cc1)[C@H](O)c1ccc(O)cc1 (racemic) [Ritodrine hydrochloriide]
Z score TNFa (TNF): -2,149761571 | Z score IL1b (IL-1β): -1,268303571

C[n+]1cc2c3c(ccc2c2ccc4cc5c(cc4c21)OCO5)OCO3 [Sanguinarine sulfate]
Z score TNFa (TNF): -2,651620816 | Z score IL1b (IL-1β): -1,160017114

CC1(C)O[C@@H]2C[C@H]3[C@@H]4CCC5=CC(=O)C=C[C@]5(C)[C@H]4[C@@H](O)C[C@]3(C)[C@]2(C(=O)CO)O1 [Desonide]
Z score TNFa (TNF): -2,297715909 | Z score IL1b (IL-1β): -0,945977097

O=C1c2c(O)ccc(O)c2C(=O)c2c(NCCNCCO)ccc(NCCNCCO)c21 [Mitoxanthrone hydrochloride]
Z score TNFa (TNF): -2,562729474 | Z score IL1b (IL-1β): -1,158920135

CCC(=O)OCC(=O)[C@@]1(OC(=O)CC)[C@H](C)C[C@H]2[C@H]3[C@H]([C@@H](O)C[C@@]21C)[C@@]1(C)C=CC(=O)C=C1C[C@H]3Cl [Alclometazone dipropionate]
Z score TNFa (TNF): -1,999200408 | Z score IL1b (IL-1β): -0,922964076

Gramicidin
Z score TNFa (TNF): -2,91855912 | Z score IL1b (IL-1β): -1,84556962

C[C@]12C=CC(=O)C=C1CC[C@@H]1[C@@H]2[C@@H](O)C[C@@]2(C)[C@H]1CC[C@]2(O)C(=O)COC(=O)CCC(=O)O [Prednisolone hemisuccinate]
Z score TNFa (TNF): -2,72427413 | Z score IL1b (IL-1β): -2,095888301

Cc1c2oc3c(C)ccc(C(=O)N[C@@H]4C(=O)N[C@H](C(C)C)C(=O)N5CCC[C@H]5C(=O)N(C)CC(=O)N(C)[C@@H](C(C)C)C(=O)O[C@@H]4C)c3nc-2c(C(=O)N[C@@H]2C(=O)N[C@H](C(C)C)C(=O)N3CCC[C@H]3C(=O)N(C)CC(=O)N(C)[C@@H](C(C)C)C(=O)O[C@@H]2C)c(N)c1=O [Dactinomycin] (I: T[dV]P[Sar][NMeV] / II: T[dV]P[Sar][NMeV]; ester I:1-I:C, II:1-II:C; linker I:N-II:N via Actinocin(9to1))
Z score TNFa (TNF): -4,13760156 | Z score IL1b (IL-1β): -1,187827575

COC(=O)[C@]1(C)CC[C@]2(C)CC[C@]3(C)C4=CC=C5C(=CC(=O)C(O)=C5C)[C@]4(C)CC[C@@]3(C)[C@@H]2C1 [Pristimerin]
Z score TNFa (TNF): -3,474946679 | Z score IL1b (IL-1β): -0,952562058

CCCCC(=O)O[C@]1(C(=O)CO)CC[C@H]2[C@@H]3CCC4=CC(=O)CC[C@]4(C)[C@H]3[C@@H](O)C[C@@]21C [Hydrocortisone valerate]
Z score TNFa (TNF): -2,794271243 | Z score IL1b (IL-1β): -2,722889618

Cc1cc(/C=C/c2ccc3cc(N(C)C)ccc3[n+]2C)c(C)n1-c1ccccc1 [Pyrvinium pamoate]
Z score TNFa (TNF): -2,268148981 | Z score IL1b (IL-1β): -1,683811286

Mepartricin
Z score TNFa (TNF): -2,504992413 | Z score IL1b (IL-1β): -1,081865327

CC(=O)O[C@@H]1C[C@@]2(C)[C@H](c3ccoc3)C[C@H]3O[C@]32[C@]2(C)C(=O)C(O)=C3C(C)(C)C(=O)C=C[C@]3(C)[C@@H]12 [Anthothecol]
Z score TNFa (TNF): -2,834385142 | Z score IL1b (IL-1β): -1,868706598

Pyrithione zinc
Z score TNFa (TNF): -2,951809549 | Z score IL1b (IL-1β): -1,872292546

Colistin sulfate
Z score TNFa (TNF): -3,457325884 | Z score IL1b (IL-1β): -0,918619053

COc1cc2oc3cc(OC)c(OC)c(CC=C(C)C)c3c(=O)c2c(OC)c1CC=C(C)C [Mangostin trimethyl ether]
Z score TNFa (TNF): -3,162805301 | Z score IL1b (IL-1β): -1,634164354

C=C1C(=O)O[C@@H]2C[C@@]3(C)CCC[C@H](C)C3=C[C@H]12 [Helenine]
Z score TNFa (TNF): -2,683894042 | Z score IL1b (IL-1β): -0,943744357

CC(C)=CCC[C@]1(C)C=Cc2c(O)c3c(c(CC=C(C)C)c2O1)O[C@]12C(=C[C@@H]4C[C@H]1C(C)(C)O[C@@]2(C/C=C(/C)C(=O)O)C4=O)C3=O [Gambogic acid]
Z score TNFa (TNF): -3,862359373 | Z score IL1b (IL-1β): -1,529656531

C[C@@H]1C[C@H]2[C@@H]3CCC4=CC(=O)C=C[C@]4(C)[C@@]3(F)[C@@H](O)C[C@]2(C)[C@H]1C(=O)CO [Desoxymetasone]
Z score TNFa (TNF): -2,417754689 | Z score IL1b (IL-1β): -0,995122645

C[C@H]1CC[C@]2(NC1)O[C@H]1C[C@H]3[C@@H]4CC[C@H]5C[C@@H](O[C@@H]6O[C@H](CO)[C@H](O[C@@H]7O[C@H](CO)[C@@H](O)[C@H](O[C@@H]8OC[C@@H](O)[C@H](O)[C@H]8O)[C@H]7O[C@@H]7O[C@H](CO)[C@@H](O)[C@H](O)[C@H]7O)[C@H](O)[C@H]6O)CC[C@]5(C)[C@H]4CC[C@]3(C)[C@H]1[C@@H]2C [Tomatine]
Z score TNFa (TNF): -4,440219344 | Z score IL1b (IL-1β): -2,626087357

S=C=NCc1ccccc1 [Benzyl isothiocyanate]
Z score TNFa (TNF): -2,908582737 | Z score IL1b (IL-1β): -1,034306584

CC(C)=CCC[C@]1(C)C=Cc2c(O)c3c(c(CC=C(C)C)c2O1)O[C@]12C(=C[C@@H]4CC1C(C)(C)O[C@@]2(C/C=C(/C)C(N)=O)C4=O)C3=O [Gambogic acid amide]
Z score TNFa (TNF): -3,013926221 | Z score IL1b (IL-1β): -1,517154207

CC[C@@]1(O)C[C@H](O[C@H]2C[C@H](N(C)C)[C@H](O)[C@H](C)O2)c2c(cc3c(c2O)C(=O)c2c(O)ccc(O)c2C3=O)[C@H]1C(=O)OC [Pyrromycin]
Z score TNFa (TNF): -2,980583694 | Z score IL1b (IL-1β): -1,456377283

C=C1C(=O)O[C@H]2C[C@@H]1C(OC(C)=O)C/C(C)=C/CC/C(C)=C/CC[C@@]2(C)O (stereo partly shown) [Crassin acetate]
Z score TNFa (TNF): -4,448741528 | Z score IL1b (IL-1β): -2,126298968

CC(=O)Oc1c2c(c(CC=C(C)C)c3c1C(=O)C1=C[C@@H]4CC5C(C)(C)OC(C/C=C(\C)C(=O)O)(C4=O)[C@@]15O3)OC(C)(CCC=C(C)C)C=C2 (stereo partly shown) [Acetyl isogambogic acid]
Z score TNFa (TNF): -3,056795183 | Z score IL1b (IL-1β): -1,48116787

CCCCCCc1ccc(O)cc1O.Nc1c2ccccc2nc2ccccc12 [Acrisorcin]
Z score TNFa (TNF): -3,10607388 | Z score IL1b (IL-1β): -0,959612692

Cc1c(O)c(O)cc2c1CC=C1[C@@]2(C)CC[C@@]2(C)[C@@H]3C[C@](C)(C(=O)O)CC[C@]3(C)CC[C@]12C [Dihydrocelastrol]
Z score TNFa (TNF): -3,387513735 | Z score IL1b (IL-1β): -1,102010407

CCCCC(CC)CNC(=N)NC(=N)NCCCCCCNC(=N)NC(=N)NCC(CC)CCCC (stereo not shown) [Alexidine hydrochloride]
Z score TNFa (TNF): -2,648173863

CC(C)=CC1C(C(=O)OCc2cccc(Oc3ccccc3)c2)C1(C)C (stereo not shown) [Phenothrin]
Z score TNFa (TNF): -2,810792588 | Z score IL1b (IL-1β): -0,983918754
